{
  "source": "patent US20120128670A1",
  "about": "“mTOR INHIBITOR AND ANGIOGENESIS INHIBITOR COMBINATION THERAPY” (OSI PHARMACEUTICALS, LLC, priority 2009, published 2012)",
  "key": {"[1]": {"tested_on": "SKOV3 ovarian carcinoma xenografts", "test": "Study No. 5: tumor growth inhibition in SKOV3 ovarian carcinoma xenografts", "conditions": "single agent", "method": "With respect to study No. 5, female athymic nude nu/nu mice (11-12 wks, 20-27 g, Harlan) were allowed to acclimate for a minimum of one week prior to initiation of the study. To evaluate tumor growth inhibition, SKOV3 tumor fragments were implanted s.c. in the right flank of nude mice. Tumors were established to mean tumor volume per treatment group of 84.6 mm^3-85.3 mm^3 of 8 mice each.\n(§1) Body weights were determined twice weekly along with tumor volume (V=[length×(width)]/2) measurements using Vernier calipers. Tumor growth inhibition was determined at different time points by the following formula:\n(§2) where Tt=median tumor volume of treated at time t; T0=median tumor volume of treated at time 0; Ct=median tumor volume of control at time t; and C0=median tumor volume of control at time 0. The average TGI over the dosing period was then calculated and reported.\n(§3) Tumor regressions were determined and calculated as follows using the formula: % Regression=100(T0−Ti)/T0; where T0 is the mean tumor volume for treated group at the initiation of treatment and Ti is the mean tumor volume for that group at time x."}, "[2]": {"tested_on": "OVCAR-5 ovarian carcinoma xenografts", "test": "Study No. 4: tumor growth inhibition in OVCAR-5 ovarian carcinoma xenografts", "conditions": "OVCAR-5 xenografts, 14 days, single agent", "from_the_text": "(§4) Regarding study Nos. 3 and 4, female athymic nude nu/nu CD-1 mice (6-8 wks, 20-29 g, Charles River Laboratories, Wilmington, Mass., USA) were allowed to acclimate for a minimum of one week prior to initiation of the study. To evaluate tumor growth inhibition, cells were harvested from cell culture flasks during exponential cell growth, washed twice with sterile PBS, counted and resuspended in PBS to a suitable concentration before s.c. implantation on the right flank of nu/nu CD-1 mice. Tumors were established to 200±50 mm^3 in size before randomization into treatment groups of 8 mice each.\n(§5) All of the Tumor Growth Inhibition (TGI) studies were performed using 20% Trappsol as the vehicle with once-daily oral administration of OSI-027 for 14 or 28 consecutive days. Body weights were determined twice weekly along with tumor volume (V=[length×(width)]/2) measurements using Vernier calipers. Tumor growth inhibition was determined at different time points by the following formula:\nas §2, §3"}, "[3]": {"tested_on": "DU145 prostate carcinoma xenografts", "conditions": "for % Reg. / Morbidity (Mortality) / Avg. TGI: DU145 xenografts", "method": "(§6) With respect to study Nos. 1 and 2, male athymic nude nu/nu mice (6-8 wks, 25-32 g, Harlan) were allowed to acclimate for a minimum of one week prior to initiation of the study. To evaluate tumor growth inhibition, DU145 tumor fragments were implanted s.c. in the right flank of nude mice. Tumors were established to 200±50 mm^3 in size before randomization into treatment groups of 8 mice each.\nas §5, §2, §3"}, "[4]": {"tested_on": "DU145 prostate carcinoma xenografts", "test": "Study No. 2: tumor growth inhibition in DU145 prostate carcinoma xenografts, extended dosing for 28 days", "format": "in vivo", "method": "as §6, §1, §2, §3"}, "[5]": {"tested_on": "H292 lung carcinoma xenografts", "test": "Study No. 3: tumor growth inhibition in H292 lung carcinoma xenografts", "conditions": "21 days, single agent", "from_the_text": "as §4, §5, §2, §3"}, "[6]": {"conditions": "OSI-027 50 mg/kg qd oral, 14 days"}, "[7]": {"conditions": "OSI-027 50 mg/kg qd oral, 14 days, 50 mg/kg"}, "[8]": {"conditions": "OSI-027 50 mg/kg qd oral, 50 mg/kg"}, "[9]": {"conditions": "OSI-027 50 mg/kg qd oral, 14 days, single agent"}, "[10]": {"conditions": "OSI-027 50 mg/kg qd oral, 28 days, single agent"}, "[11]": {"conditions": "OSI-027 65 mg/kg qd oral, 28 days, single agent"}, "[12]": {"conditions": "Sutent 40 mg/kg qd, listed as Sunitinib"}, "[13]": {"conditions": "Avastin 4 mg/kg q4d (table; text 5 mg/kg q4d×4)"}, "[14]": {"conditions": "Avastin 4 mg/kg q4d (table; text 5 mg/kg q4d×4), listed as Bevacizumab"}, "[15]": {"conditions": "Avastin 4 mg/kg q4d×4, single agent"}, "[16]": {"conditions": "Avastin 4 mg/kg q4d×8, single agent"}},
  "note": "Read-outs that look alike come from different tables or passages of the source.",
  "data": [
    {"compound": "COc1cccc2cc(-c3nc([C@H]4CC[C@H](C(=O)O)CC4)n4ncnc(N)c34)[nH]c12", "note": "[OSI-027, (1R,4R)-4-(4-amino-5-(7-methoxy-1H-indol-2-yl)imidazo[1,5-f][1,2,4]triazin-7-yl)cyclohexanecarboxylic acid]", "values": [
      {"measurement": "BWL", "setting": "[1]; [6]", "value": 2, "unit": "%"},
      {"measurement": "Morbidity (Mortality)", "setting": "[1]; [6]", "value": "0/8"},
      {"measurement": "% Reg.", "setting": "[1]; [7]", "value": 4, "unit": "%"},
      {"measurement": "Avg. TGI", "setting": "[1]; [7]", "value": 86, "unit": "%"},
      {"measurement": "BWL", "setting": "[2]; OSI-027 50 mg/kg qd oral", "value": 0, "unit": "%"},
      {"measurement": "Morbidity (Mortality)", "setting": "[2]; OSI-027 50 mg/kg qd oral", "value": "0/8"},
      {"measurement": "% Reg.", "setting": "[2]; [8]", "value": 6, "unit": "%"},
      {"measurement": "Avg. TGI", "setting": "[2]; [8]", "value": 78, "unit": "%"},
      {"measurement": "% Reg.", "setting": "[3]; [9]", "value": 0, "unit": "%"},
      {"measurement": "Morbidity (Mortality)", "setting": "[3]; [9]", "value": "0/8"},
      {"measurement": "Avg. TGI", "setting": "[3]; OSI-027 50 mg/kg qd oral, 14 days, single agent, 50 mg/kg", "value": 21, "unit": "%"},
      {"measurement": "BWL", "setting": "[3]; mouse, in vivo, po, 50 mg/kg", "value": 6, "unit": "%"},
      {"measurement": "% Reg.", "setting": "[4]; [10]", "value": 0, "unit": "%"},
      {"measurement": "BWL", "setting": "[4]; [10]", "value": 14, "unit": "%"},
      {"measurement": "Morbidity (Mortality)", "setting": "[4]; [10]", "value": "0/8"},
      {"measurement": "Avg. TGI", "setting": "[4]; OSI-027 50 mg/kg qd oral, 28 days, single agent, 50 mg/kg", "value": 40, "unit": "%"},
      {"measurement": "% Reg.", "setting": "[4]; [11]", "value": 0, "unit": "%"},
      {"measurement": "BWL", "setting": "[4]; [11]", "value": 17, "unit": "%"},
      {"measurement": "Morbidity (Mortality)", "setting": "[4]; [11]", "value": "0/8"},
      {"measurement": "Avg. TGI", "setting": "[4]; OSI-027 65 mg/kg qd oral, 28 days, single agent, 65 mg/kg", "value": 58, "unit": "%"},
      {"measurement": "BWL", "setting": "[5]; OSI-027 50 mg/kg qd oral", "value": 0, "unit": "%"},
      {"measurement": "Morbidity (Mortality)", "setting": "[5]; OSI-027 50 mg/kg qd oral", "value": "0/8"},
      {"measurement": "% Reg.", "setting": "[5]; [8]", "value": 8, "unit": "%"},
      {"measurement": "Avg. TGI", "setting": "[5]; [8]", "value": 83, "unit": "%"}
    ]},
    {"compound": "CCN(CC)CCNC(=O)c1c(C)[nH]c(/C=C2\\C(=O)Nc3ccc(F)cc32)c1C", "note": "[Sutent, sunitinib, reference compound]", "values": [
      {"measurement": "% Reg.", "setting": "[2]; Sutent 40 mg/kg qd", "value": 0, "unit": "%"},
      {"measurement": "Avg. TGI", "setting": "[2]; Sutent 40 mg/kg qd", "value": 71, "unit": "%"},
      {"measurement": "Morbidity (Mortality)", "setting": "[2]; Sutent 40 mg/kg qd", "value": "0/8"},
      {"measurement": "Avg. TGI", "setting": "[2]; [12]", "value": 71, "unit": "%"},
      {"measurement": "% Reg.", "setting": "[5]; Sutent 40 mg/kg qd", "value": 0, "unit": "%"},
      {"measurement": "Avg. TGI", "setting": "[5]; Sutent 40 mg/kg qd", "value": 55, "unit": "%"},
      {"measurement": "Morbidity (Mortality)", "setting": "[5]; Sutent 40 mg/kg qd", "value": "0/8"},
      {"measurement": "Avg. TGI", "setting": "[5]; [12]", "value": 55, "unit": "%"}
    ]},
    {"compound": "bevacizumab [Avastin, reference compound]", "values": [
      {"measurement": "% Reg.", "setting": "[1]; [13]", "value": 0, "unit": "%"},
      {"measurement": "Avg. TGI", "setting": "[1]; [13]", "value": 67, "unit": "%"},
      {"measurement": "Morbidity (Mortality)", "setting": "[1]; [13]", "value": "0/8"},
      {"measurement": "% Reg.", "setting": "[1]; [14]", "value": 0, "unit": "%"},
      {"measurement": "Avg. TGI", "setting": "[1]; [14]", "value": 67, "unit": "%"},
      {"measurement": "% Reg.", "setting": "[3]; [15]", "value": 0, "unit": "%"},
      {"measurement": "Avg. TGI", "setting": "[3]; [15]", "value": 16, "unit": "%"},
      {"measurement": "Morbidity (Mortality)", "setting": "[3]; [15]", "value": "0/8"},
      {"measurement": "Avg. TGI", "setting": "[3]; Avastin 4 mg/kg q4d×4, single agent, listed as Bevacizumab", "value": 16, "unit": "%"},
      {"measurement": "% Reg.", "setting": "[4]; [16]", "value": 0, "unit": "%"},
      {"measurement": "Avg. TGI", "setting": "[4]; [16]", "value": 32, "unit": "%"},
      {"measurement": "Morbidity (Mortality)", "setting": "[4]; [16]", "value": "0/8"},
      {"measurement": "Avg. TGI", "setting": "[4]; Avastin 4 mg/kg q4d×8, single agent, listed as Bevacizumab", "value": 32, "unit": "%"}
    ]}
  ]
}
